What all share (assay type): cell-based, human
Assay [1] deals with HFSC cells. The assay can be described thus: Expansion of HFSC cells with growth factors and supplements (live cell count). Particulars: for effect on expansion rate: either 50 μM 1-thioglycerol added or PDGF-AA increased to 100 ng/ml (not both), with 10 ng/ml bFGF+10 ng/ml IGF-1, passage 5; for effect on cell status (vacuoles, cell number): supplement to DMEM/F12 with glutamine, pyruvate, B27, 1% NEAA, 1 mM N-acetyl-cysteine, 55 μM β-mercaptoethanol, data not shown; for concentration at which expansion rate / response is saturated: established cell line #2b. The procedure: FIG. 4 illustrates the expansion rate of HFSC cells (cell line #2b) in the presence of different combinations of growth factors: (1): 20 ng/ml PDGF-AA+10 ng/ml bFGF; (2): 20 ng/ml PDGF-AA+10 ng/ml bFGF+5 ng/ml NT-3; (3): 20 ng/ml PDGF-AA+10 ng/ml bFGF+10 ng/ml IGF-1; (4): 20 ng/ml PDGF-AA+10 ng/ml bFGF+5 ng/ml NT-3+10 ng/ml IGF-1. The cells were harvested at day 11 of passage 3 (P3D11) and number of live cells in each condition was counted. Then, they were passaged in the same condition that was used at passage 3 at the same cell density. The cells were harvested at day 8 of passage 4 (P4D8) and number of live cells in each condition was counted (these cells were harvested before they became sub-confluent because they started forming spheres). […] Condition (3) was effective at both passages. FIG. 5 illustrates the effects of high dose of PDGF-AA (100 ng/ml) and 1-thioglycerol on the proliferation of HFSC cells (cell line #2b); cultured in HFSCM1 medium in the presence of the following combinations of growth factors: (1): 20 ng/ml PDGF-AA+10 ng/ml bFGF+10 ng/ml IGF-1; (2): 20 ng/ml PDGF-AA+10 ng/ml bFGF+10 ng/ml IGF-1+50 μM 1-thioglycerol; (3): 100 ng/ml PDGF-AA+10 ng/ml bFGF+10 ng/ml IGF-1; (4): 100 ng/ml PDGF-AA+10 ng/ml bFGF+10 ng/ml IGF-1+50 μM 1-thioglycerol; (5): 100 ng/ml PDGF-AA+10 ng/ml bFGF+50 μM 1-thioglycerol. The cells were harvested at day 7 of passage 5 (these cells were harvested before they became sub-confluent because they started forming spheres as they did at passage 4) and number of live cells in each condition was counted. The combination of 20 ng/ml PDGF-AA+10 ng/ml bFGF was also tested, but the recovered cell number was too low to evaluate (less than 1×10^4 cells which was under the countable range) and its data was eliminated from this figure. The condition (1) could expand cells at passage 3 but couldn't expand cells at passage 5. […] When the addition of 50 μM 1-thioglycerol and the increase of PDGF-AA concentration to 100 ng/ml were combined [condition (4)], the cell expansion rate improved dramatically and the cells could be expanded successfully. […] The cell “expansion rate” refers to the cell number on a particular date divided by the initial cell number at the start of culture. Human 15-week fetal spinal cord was dissected from the spinal column, with the meninges and peripheral nerves removed. The tissue then was dissociated with Accutase and washed and cells obtained from human fetal spinal cord were placed in a culture vessel containing the following growth medium: DMEM/F12 containing 2.5 mM glutamine and 15 mM HEPES, 2% B27 supplement (Invitrogen™), 1% NEAA, 1.5 mM pyruvate (Invitrogen™), 55 μM β-mercaptoethanol (Invitrogen™), 1 mM N-acetyl-L-cysteine (Sigma-Aldrich™), 20 ng/ml PDGF-AA (R&D SYSTEMS™, Inc., Minneapolis, Minn., USA) and 10 ng/ml bFGF (R&D SYSTEMS™). Cells were then placed in an incubator maintained at 37° C., 5% O2, and 5% CO2. bFGF (10 ng/ml) was added daily to the culture medium. Medium was changed every 2-3 days during passage. Based on the preliminary experiments, growing cells were not so many in the presence of PDGF-AA and bFGF and many cells stopped proliferating or died within a few weeks. […] To remove cells that are not responsive to PDGF-AA and bFGF, cells were cultured in an ultra-low adhesion culture plate ([…] Inc., Corning, N.Y., USA). […] Spheres were collected at lower speed of centrifugation (300 rpm for collecting spheres vs. 1,000 rpm for collecting single cells) for medium change and passaging. After 9 days, cells were harvested and passaged onto poly-ornithine-coated culture vessels. After this period, cells were passaged every 7-14 days. […] In addition, the cells began to appear unhealthy, forming vacuoles in their cytoplasm. As mentioned in Example 1, inclusion of PDGF-AA and bFGF in the culture medium supported adequate growth of the HFSC cells initially, but the proliferation rate slowed after 2 passages. […]

The subject of assay [2] is HFSC cells. Put plainly: Differentiation of HFSC cells in serum-free medium (GD3/O4 staining, morphology). The procedure: FIG. 7 depicts spontaneous differentiation of HFSC cells in serum-free medium in slides A-F. Slides A and B are phase contrast images taken with an inverted microscope showing the morphological change of HFSC cells (cell line #2b) at passage 12, day 9 (FIG. 7, slides A & B) after being cultured in HFSCM1 medium supplemented with 20 ng/ml PDGF-AA, 10 ng/ml bFGF, 10 ng/ml IGF-1 and 50 μM 1-thioglycerol (FIG. 7, slide A) or without 1-thioglycerol (FIG. 7, slide B). HFSC cells were differentiated spontaneously without replenishing bFGF between changing medium. Even in the same condition, HFSC cells didn't differentiate if bFGF was replenished everyday and seemed to grow slowly. […] The ratio of oligodendrocyte progenitor cells and other cell types to differentiated cells (oligodendrocyte progenitor cells plus other cell types) were calculated and shown in FIG. 15, slide E. Oligodendrocyte progenitor cell was 99.1%±0.56% of differentiated cells whereas other cell types were 0.9%±0.56% of differentiated cells. […]

Assay [3] has as its system HFSC cells. The assay can be described thus: Expansion of HFSC cells with growth factors and supplements (live cell count). To be noted: higher concentration of IGF-1 (50-500 ng/ml).

`OCC(O)CS` (stereo not shown) [1-thioglycerol, reference compound]: the “effect on expansion rate” value in the assay on HFSC cells [1] is given as “very little positive effect”.

Regarding `CC(=O)N[C@@H](CS)C(=O)O` [N-acetyl-cysteine, reference compound], in the assay with HFSC cells [1], the “effect on cell status (vacuoles, cell number)” value is “seemed to improve the cells' status”.

As to `Nc1ncnc2c1nc(Sc1ccc(Cl)cc1)n2[C@@H]1O[C@@H]2COP(=O)(O)O[C@H]2[C@H]1O` [pCPT-cAMP, reference compound], in the assay on HFSC cells [2] (100 μM, high density (3×10^4 cells/cm^2)), the induction of differentiation entry was “could induce differentiation”.

For `OCCS` [β-mercaptoethanol, reference compound], in the assay on HFSC cells [1], the “effect on cell status (vacuoles, cell number)” value was “seemed to improve the cells' status”.

For basic fibroblast growth factor [bFGF], in the assay with HFSC cells [1], the “concentration at which expansion rate / response is saturated” value stood at 20 ng/mL.

As for insulin-like growth factor-1 [IGF-1], the “concentration at which expansion rate / response is saturated” value in the assay with HFSC cells [1] worked out at 40 ng/mL. For the same compound, in the assay on HFSC cells [3], the differentiated cells seen result was “around 1%”.

With “platelet derived growth factor-AA [PDGF-AA]”, in the assay on HFSC cells [1], the “effect on expansion rate” value is reported as “very little positive effect” and the “concentration at which expansion rate / response is saturated” value was 10 to 20 ng/mL. For the same compound, the “effect on spontaneous differentiation” value in the assay on HFSC cells [2] (40 ng/ml or higher PDGF-AA) is “blocked to differentiate”.

The values above are taken from US8993320B2, “Culture method to obtain and maintain a pure or enriched population of mammalian neural stem cells and/or neural/progenitor cells that are prone to differentiate into oligodendrocyte-lineage cells in vitro” (priority 2011, dated 2015).
